Experimental data taken from publication PMC12175894 (Science Advances, 2025).
Where a chain is given by its changes, count along the chain named. “Also recorded” adds a separate entry of the source. Read-outs that look alike come from different tables or passages of the source.

Columns and labels:
5-HT1AR + Gαi1 [1] = test system: 5-HT1AR + Gαi1
5-HT1AR + Gαi1 [2] = biological target: 5-HT1AR + Gαi1 (Homo sapiens, UniProt P08908)
5-HT1AR wt = biological target: T1, 5-HT1AR wt (Homo sapiens, UniProt P08908); assay: Radioligand competition, displacement of [3H]WAY100635; assay type: binding
T1 construct: host or cells: HEK293T, transient; membranes
T1 sequence (P08908 1-422): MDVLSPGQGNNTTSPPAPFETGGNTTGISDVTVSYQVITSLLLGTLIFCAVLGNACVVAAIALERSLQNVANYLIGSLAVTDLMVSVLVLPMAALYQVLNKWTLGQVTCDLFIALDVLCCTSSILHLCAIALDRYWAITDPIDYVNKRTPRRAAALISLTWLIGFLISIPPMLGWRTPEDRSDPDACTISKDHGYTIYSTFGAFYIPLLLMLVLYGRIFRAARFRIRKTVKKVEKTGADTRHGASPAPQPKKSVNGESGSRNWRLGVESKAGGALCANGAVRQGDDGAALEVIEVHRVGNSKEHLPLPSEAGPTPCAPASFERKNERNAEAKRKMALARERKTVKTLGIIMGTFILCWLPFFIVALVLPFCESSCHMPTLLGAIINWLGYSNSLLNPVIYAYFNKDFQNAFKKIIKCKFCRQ

opioid µOR = opioid µOR (Homo sapiens, UniProt P35372); assay: Radioligand displacement, [3H]diprenorphine
Sequence of opioid µOR (P35372 whole entry): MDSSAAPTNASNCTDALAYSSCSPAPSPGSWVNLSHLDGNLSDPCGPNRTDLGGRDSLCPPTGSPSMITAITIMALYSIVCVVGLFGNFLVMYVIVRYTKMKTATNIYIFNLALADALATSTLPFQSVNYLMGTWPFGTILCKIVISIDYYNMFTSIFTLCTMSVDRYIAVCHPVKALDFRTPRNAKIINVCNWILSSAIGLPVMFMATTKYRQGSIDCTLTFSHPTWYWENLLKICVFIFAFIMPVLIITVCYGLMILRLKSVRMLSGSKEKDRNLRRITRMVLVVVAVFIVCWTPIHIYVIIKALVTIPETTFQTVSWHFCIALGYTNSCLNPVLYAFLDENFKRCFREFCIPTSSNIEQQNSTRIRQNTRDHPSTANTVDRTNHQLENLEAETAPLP

5-HT1AR [3] = biological target: T2, 5-HT1AR (Homo sapiens, UniProt P08908); assay: IP-One accumulation with hybrid Gαqi in HEK293T; assay type: cell-based; set-up: host or cells: HEK293T, HEK293A, HEK293AΔGs, HEK293AΔGi/o, HEK293AΔARRB1/B2
T2 sequence (P08908 1-422): T1 sequence (P08908 1-422)

[4] = Metabolic stability with rat liver microsomes; assay type: in vitro ADME
adrenergic β1 = adrenergic β1 (Homo sapiens, UniProt P08588); assay: Radioligand displacement, [3H]CGP12177
Sequence of adrenergic β1 (P08588 whole entry): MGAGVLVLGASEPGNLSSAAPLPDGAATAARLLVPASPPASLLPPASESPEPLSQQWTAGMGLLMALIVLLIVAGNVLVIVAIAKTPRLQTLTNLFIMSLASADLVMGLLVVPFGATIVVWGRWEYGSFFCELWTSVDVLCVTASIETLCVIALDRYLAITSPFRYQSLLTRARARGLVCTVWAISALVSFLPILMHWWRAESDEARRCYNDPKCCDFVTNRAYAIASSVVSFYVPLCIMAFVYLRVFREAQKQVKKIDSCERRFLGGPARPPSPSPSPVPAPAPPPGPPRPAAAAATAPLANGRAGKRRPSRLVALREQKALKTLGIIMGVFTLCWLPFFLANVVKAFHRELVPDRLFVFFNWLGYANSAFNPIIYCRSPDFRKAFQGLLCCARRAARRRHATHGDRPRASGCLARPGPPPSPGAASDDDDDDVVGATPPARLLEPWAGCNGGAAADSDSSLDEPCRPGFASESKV

mice [5] = assay: Elevated plus maze; assay type: in vivo, mouse
α2AR = α2AR (Homo sapiens, UniProt P08913); assay: BRET Gαi1 activation
Sequence of α2AR (P08913 whole entry): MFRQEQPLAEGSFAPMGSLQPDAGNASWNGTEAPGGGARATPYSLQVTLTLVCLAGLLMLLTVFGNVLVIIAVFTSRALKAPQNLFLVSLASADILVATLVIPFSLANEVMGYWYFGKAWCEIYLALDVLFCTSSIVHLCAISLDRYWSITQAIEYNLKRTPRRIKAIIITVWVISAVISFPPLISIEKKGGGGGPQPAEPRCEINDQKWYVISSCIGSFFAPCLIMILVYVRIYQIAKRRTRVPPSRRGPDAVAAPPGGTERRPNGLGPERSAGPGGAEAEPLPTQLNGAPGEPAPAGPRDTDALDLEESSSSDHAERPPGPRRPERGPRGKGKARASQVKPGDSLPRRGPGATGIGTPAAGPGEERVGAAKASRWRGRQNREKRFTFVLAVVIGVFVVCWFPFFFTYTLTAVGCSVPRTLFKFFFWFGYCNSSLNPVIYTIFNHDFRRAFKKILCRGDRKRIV

orexin OX1 = orexin OX1 (Homo sapiens, UniProt O43613); assay: Radioligand displacement, [3H]SB674042
Sequence of orexin OX1 (O43613 whole entry): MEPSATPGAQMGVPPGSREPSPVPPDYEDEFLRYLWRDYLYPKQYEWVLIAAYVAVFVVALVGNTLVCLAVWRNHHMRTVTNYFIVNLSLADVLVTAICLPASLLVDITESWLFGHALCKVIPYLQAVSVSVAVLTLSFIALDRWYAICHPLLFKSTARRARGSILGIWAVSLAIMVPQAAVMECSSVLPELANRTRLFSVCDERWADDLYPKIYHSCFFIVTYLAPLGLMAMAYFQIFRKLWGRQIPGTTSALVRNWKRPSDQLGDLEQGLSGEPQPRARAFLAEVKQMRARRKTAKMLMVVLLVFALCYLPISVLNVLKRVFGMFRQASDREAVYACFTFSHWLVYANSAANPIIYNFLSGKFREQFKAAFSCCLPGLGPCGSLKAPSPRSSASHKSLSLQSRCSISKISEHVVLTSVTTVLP

5-HT1AR [6] = biological target: T2, 5-HT1AR; assay: PathHunter β-arrestin 2 inhibition assay, stimulated with serotonin
orexin OX2 = orexin OX2 (Homo sapiens, UniProt O43614); assay: Radioligand displacement, [3H]EMPA
Sequence of orexin OX2 (O43614 whole entry): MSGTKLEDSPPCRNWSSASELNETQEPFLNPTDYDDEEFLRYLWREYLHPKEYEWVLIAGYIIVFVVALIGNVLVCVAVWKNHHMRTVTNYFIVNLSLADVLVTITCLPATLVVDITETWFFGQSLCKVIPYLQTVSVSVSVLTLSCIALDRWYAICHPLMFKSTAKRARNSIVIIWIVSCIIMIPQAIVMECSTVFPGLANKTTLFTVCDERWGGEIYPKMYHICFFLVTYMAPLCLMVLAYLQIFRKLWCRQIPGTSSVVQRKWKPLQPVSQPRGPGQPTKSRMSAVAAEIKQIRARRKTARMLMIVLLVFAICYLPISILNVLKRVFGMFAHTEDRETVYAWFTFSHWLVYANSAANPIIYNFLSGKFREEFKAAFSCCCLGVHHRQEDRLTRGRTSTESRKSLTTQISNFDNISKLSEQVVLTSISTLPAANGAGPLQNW

[7] = In vivo pharmacokinetic studies; conditions: mouse, CSF, ip; male C57BL/6 mice, 10 mg/kg i.p.
5-HT1AR [8] = biological target: T2, 5-HT1AR; assay: cell-based
[9] = biological target: T3, 5-HT1AR F112^3.28W + M92^2.60F (Homo sapiens, UniProt P08908, F112W/M92F); assay: GloSensor cAMP accumulation in HEK293AΔGi/o; assay type: cell-based; conditions: read-out: Emax [% ± SEM], cAMP accumulation
T3 sequence (P08908 1-422 M92F/F112W): T1 sequence (P08908 1-422) with M92F, F112W

neurotensin NTS1 = neurotensin NTS1 (Homo sapiens, UniProt P30989); assay: Radioligand displacement, [3H]NT(8-13)
Sequence of neurotensin NTS1 (P30989 whole entry): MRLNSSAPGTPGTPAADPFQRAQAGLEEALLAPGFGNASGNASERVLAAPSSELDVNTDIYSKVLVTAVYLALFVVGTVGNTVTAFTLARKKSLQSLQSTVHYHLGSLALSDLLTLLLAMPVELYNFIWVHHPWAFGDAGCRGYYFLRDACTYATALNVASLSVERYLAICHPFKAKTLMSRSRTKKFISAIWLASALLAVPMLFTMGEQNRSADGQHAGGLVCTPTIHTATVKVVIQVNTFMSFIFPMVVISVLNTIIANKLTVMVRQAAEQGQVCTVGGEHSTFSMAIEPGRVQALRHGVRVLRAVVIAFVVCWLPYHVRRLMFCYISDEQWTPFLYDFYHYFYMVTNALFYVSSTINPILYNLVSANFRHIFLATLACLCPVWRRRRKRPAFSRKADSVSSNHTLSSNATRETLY

mice [10] = assay: Conditioned place preference; assay type: in vivo, mouse; conditions: 10 mg/kg i.p.
muscarinic M2 = muscarinic M2 (Homo sapiens, UniProt P08172); assay: Radioligand displacement, [3H]NMS
Sequence of muscarinic M2 (P08172 whole entry): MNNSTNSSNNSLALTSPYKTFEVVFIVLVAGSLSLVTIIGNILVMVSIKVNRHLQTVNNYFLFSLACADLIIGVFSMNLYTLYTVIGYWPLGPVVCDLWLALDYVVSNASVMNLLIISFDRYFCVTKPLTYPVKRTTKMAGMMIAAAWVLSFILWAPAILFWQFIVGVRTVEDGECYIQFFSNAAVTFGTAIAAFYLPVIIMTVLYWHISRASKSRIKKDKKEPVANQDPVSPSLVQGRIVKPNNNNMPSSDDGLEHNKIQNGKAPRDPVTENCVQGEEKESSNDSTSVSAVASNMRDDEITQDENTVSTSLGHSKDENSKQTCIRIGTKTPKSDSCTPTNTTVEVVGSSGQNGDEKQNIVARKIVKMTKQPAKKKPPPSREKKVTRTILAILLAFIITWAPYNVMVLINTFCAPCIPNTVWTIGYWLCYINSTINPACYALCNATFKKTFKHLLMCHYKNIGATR

5-HT1ER = 5-HT1ER (Homo sapiens, UniProt P28566); assay: BRET Gαi1 activation
Sequence of 5-HT1ER (P28566 whole entry): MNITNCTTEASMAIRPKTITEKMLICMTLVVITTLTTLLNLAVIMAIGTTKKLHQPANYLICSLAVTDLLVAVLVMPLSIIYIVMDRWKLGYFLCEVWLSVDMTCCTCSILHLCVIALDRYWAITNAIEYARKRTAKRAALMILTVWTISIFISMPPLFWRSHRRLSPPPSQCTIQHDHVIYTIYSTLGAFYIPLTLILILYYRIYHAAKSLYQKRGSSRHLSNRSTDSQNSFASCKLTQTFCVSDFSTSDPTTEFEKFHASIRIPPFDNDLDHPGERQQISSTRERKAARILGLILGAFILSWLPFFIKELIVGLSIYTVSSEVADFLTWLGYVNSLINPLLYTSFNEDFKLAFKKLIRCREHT

muscarinic M1 = muscarinic M1 (Homo sapiens, UniProt P11229); assay: Radioligand displacement, [3H]NMS
Sequence of muscarinic M1 (P11229 whole entry): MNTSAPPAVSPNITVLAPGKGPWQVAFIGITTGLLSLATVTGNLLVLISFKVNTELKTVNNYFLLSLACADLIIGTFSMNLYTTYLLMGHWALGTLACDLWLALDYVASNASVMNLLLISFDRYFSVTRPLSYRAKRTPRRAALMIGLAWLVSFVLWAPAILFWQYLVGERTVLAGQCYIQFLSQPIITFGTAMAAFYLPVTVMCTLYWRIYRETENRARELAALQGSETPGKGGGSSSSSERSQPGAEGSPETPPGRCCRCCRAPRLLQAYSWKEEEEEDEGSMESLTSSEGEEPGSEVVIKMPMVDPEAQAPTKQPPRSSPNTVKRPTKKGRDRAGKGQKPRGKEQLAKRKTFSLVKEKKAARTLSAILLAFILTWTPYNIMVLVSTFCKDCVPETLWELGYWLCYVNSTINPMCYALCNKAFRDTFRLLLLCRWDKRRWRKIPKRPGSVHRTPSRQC

adrenergic α2A = adrenergic α2A (Homo sapiens, UniProt P08913); assay: Radioligand displacement, [3H]RX821002
Sequence of adrenergic α2A (P08913 whole entry): as the sequence (P08913 whole entry) above

5-HT1AR [11] = biological target: T2, 5-HT1AR; assay: High-throughput screening with radioligand displacement, single point; assay type: binding; set-up: host or cells: HEK293T, transient; membranes; conditions: compound at 10 nM

Sequence of 5-HT1AR + Gαi1 (Homo sapiens, UniProt P08908) (P63096 2-354 partner limits assumed, one chain of several): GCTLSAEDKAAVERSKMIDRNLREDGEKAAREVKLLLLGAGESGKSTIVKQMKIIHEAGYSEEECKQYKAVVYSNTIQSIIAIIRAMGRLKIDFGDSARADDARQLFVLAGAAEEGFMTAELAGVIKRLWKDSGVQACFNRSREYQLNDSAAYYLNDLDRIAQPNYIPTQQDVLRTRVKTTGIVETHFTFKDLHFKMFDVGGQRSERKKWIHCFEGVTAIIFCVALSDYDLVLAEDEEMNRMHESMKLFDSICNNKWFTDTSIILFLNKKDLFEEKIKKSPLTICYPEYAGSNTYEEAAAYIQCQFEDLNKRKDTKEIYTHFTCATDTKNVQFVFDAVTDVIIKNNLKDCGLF

Compound: COc1ccccc1OCCNCCCOc1ccc2c(c1)NC(=O)CO2 [ST171]
- Emax (5-HT1AR + Gαi1 [1]): 57 to 80%
- Emax (5-HT1AR + Gαi1 [2]): 68 ± 3%
- Ki (5-HT1AR wt; 5-HT1A, read-out: pKi (converted)): 0.369 nM
- Ki (5-HT1AR wt; 5-HT1AR wt, membranes from transiently transfected HEK 293T cells, read-out: Ki [nM ± SEM]): 0.41 nM
- Ki (opioid µOR; Ki [nM ± SD], µOR): 8600 ± 2100 nM
- Ki (opioid µOR; Ki, opioid receptor family): > 5000 nM
- Ki (opioid µOR; pKi, µOR): 8430 nM
- Emax (5-HT1AR [3]; HEK-293T, read-out: Emax[Gqi], IP accumulation): 43%
- EC50 (5-HT1AR [3]; hybrid Gαqi, HEK293T, read-out: EC50[Gqi], IP accumulation): 0.013 ± 0.0029 µM
- intact substrate remaining ([4]; after 1 h incubation): more than 70%
- intact substrate remaining ([4]; after 3 h incubation): > 45%
- Ki (adrenergic β1; Ki [nM ± SD]): 1700 ± 350 nM
- Ki (adrenergic β1; pKi): 1630 nM
- time in center and open arms, plus maze (mice [5]; 1 or 5 mg/kg, 30 min before test): spent more time in the center
- anxiolytic effect, plus maze (mice [5]; analgesic dose (10 mg/kg)): anxiolytic effects of the drug disappeared
- intrinsic activity (α2AR): devoid of intrinsic activity
- Ki (orexin OX1; Ki [nM ± SD]): > 50000 nM
- Ki (orexin OX1; pKi): > 50100 nM
- IC50 (5-HT1AR [6]): 0.0039 ± 0.0005 µM
- Ki (orexin OX2; Ki [nM ± SD]): > 50000 nM
- Ki (orexin OX2; pKi): > 50100 nM
- Cmax [7]: ~40 nM
- EC50 (5-HT1AR [8]): 0.0016 µM
- Emax [9]: < 5%
- Ki (neurotensin NTS1; Ki [nM ± SD]): > 50000 nM
- Ki (neurotensin NTS1; pKi): > 50100 nM
- conditioned place preference (rewarding properties) (mice [10]): rewarding; also recorded: induces CPP
- Ki (muscarinic M2; Ki [nM ± SD]): 18000 ± 9200 nM
- Ki (muscarinic M2; pKi): 16300 nM
- Emax (5-HT1ER): < 10%
- Ki (muscarinic M1; Ki [nM ± SD]): 10000 ± 920 nM
- Ki (muscarinic M1; pKi): 10300 nM
- Ki (adrenergic α2A; Ki [nM ± SD]): 260 nM
- Ki (adrenergic α2A; pKi): 204 nM
- displacement of the radiolabeled ligand [3H]WAY100,635 (5-HT1AR [11]): more than 80%
